The results in this text go back to patent publication US7585883B2, “Substituted pyridines and their uses” (Rigel Pharmaceuticals, Inc., priority 2004, dated 2009).

Each structure is given as a SMILES string.

The test system of assay [1] is cultured human mast cells (CHMC). The experiment in a line: CHMC low cell density IgE activation: tryptase assay (IgE-induced degranulation). To be noted: anti-IgE stimulation, tryptase release, read-out: IgE (first symbol of IgE/Iono): IC50 of IgE-induced degranulation. Type of assay: cell-based. Here is the method:
Inhibition of degranulation was measured at both low and high cell density by quantifying the release of the granule specific factors tryptase, histamine and hexosaminidase. Inhibition of release and/or synthesis of lipid mediators was assessed by measuring the release of leukotriene LTC4 and inhibition of release and/or synthesis of cytokines was monitored by quantifying TNF-α, IL-6 and IL-13. Tryptase and hexosaminidase were quantified using fluorogenic substrates as described in their respective examples. Histamine, TNFα, IL-6, IL-13 and LTC4 were quantified using the following commercial ELISA kits: histamine (Immunotech #2015, Beckman Coulter), TNFα (Biosource #KHC3011), IL-6 (Biosource #KMC0061), IL-13 (Biosource #KHC0132) and LTC4 (Cayman Chemical #520211). The protocols of the various assays are provided below.
7.2.7 CHMC Low Cell Density IgE Activation: Tryptase and LTC4 Assays
(§1) To duplicate 96-well U-bottom plates (Costar 3799) add 65 ul of compound dilutions or control samples that have been prepared in MT [137 mM NaCl, 2.7 mM KCl, 1.8 mM CaCl2, 1.0 mM MgCl2, 5.6 mM Glucose, 20 mM Hepes (pH 7.4), 0.1% Bovine Serum Albumin, (Sigma A4503)] containing 2% MeOH and 1% DMSO. Pellet CHMC cells (980 rpm, 10 min) and resuspend in pre-warmed MT. Add 65 ul of cells to each 96-well plate. Depending on the degranulation activity for each particular CHMC donor, load 1000-1500 cells/well. Mix four times followed by a 1 hr incubation at 37° C. During the 1 hr incubation, prepare 6× anti-IgE solution [rabbit anti-human IgE (1 mg/ml, Bethyl Laboratories A80-109A) diluted 1:167 in MT buffer]. Stimulate cells by adding 25 ul of 6× anti-IgE solution to the appropriate plates. Add 25 ul MT to un-stimulated control wells. Mix twice following addition of the anti-IgE. Incubate at 37° C. for 30 minutes. During the 30 minute incubation, dilute the 20 mM tryptase substrate stock solution [(Z-Ala-Lys-Arg-AMC 2TFA; Enzyme Systems Products, #AMC-246)] 1:2000 in tryptase assay buffer [0.1 M Hepes (pH 7.5), 10% w/v Glycerol, 10 uM Heparin (Sigma H-4898) 0.01% NaN3]. Spin plates at 1000 rpm for 10 min to pellet cells. Transfer 25 ul of supernatant to a 96-well black bottom plate and add 100 ul of freshly diluted tryptase substrate solution to each well. Incubate plates at room temperature for 30 min. Read the optical density of the plates at 355 nm/460 nm on a spectrophotometric plate reader.

Assay [2] shares this test system. Nature of the assay: CHMC low cell density ionomycin activation: tryptase assay (ionomycin-induced degranulation). Type of assay: cell-based. Particulars: ionomycin 2 μM final, tryptase release, read-out: Iono (second symbol of IgE/Iono): IC50 of ionomycin-induced degranulation. Here is the method:
as §1
To confirm that many of the pyridine compounds of the invention exert their inhibitory activity by blocking or inhibiting the early IgE receptor signal transduction cascade, several of the compounds were tested in cellular assays for ionomycin-induced degranulation, as described below.
Assays for ionomycin-induced mast cell degranulation were carried out as described for the CHMC Low Density IgE Activation assays, supra, with the exception that during the 1 hour incubation, 6× ionomycin solution [5 mM ionomycin (Sigma I-0634) in MeOH (stock) diluted 1:416.7 in MT buffer (2 μM final)] was prepared and cells were stimulated by adding 25 μl of the 6× ionomycin solution to the appropriate plates.

For the molecule `O=C(OCCS(=O)(=O)c1ccc([N+](=O)[O-])cn1)c1cccc(C(F)(F)F)c1` [Compound 11, 2-[(5-Nitro-2-pyridinyl)sulfonyl]ethyl 3-trifluoromethylbenzoate], the IC50 in assay [1] and in assay [2] was under 10 µM each time.
Regarding `O=C(OCCS(=O)(=O)c1ccc([N+](=O)[O-])cn1)c1cccc(OC(F)(F)F)c1` [Compound 19, 2-[(5-Nitro-2-pyridinyl)sulfonyl]ethyl 3-trifluoromethoxybenzoate], the IC50 in assay [1] and in assay [2] was under 10 µM each time.
With `O=C(OCCS(=O)(=O)c1ccc([N+](=O)[O-])cn1)c1ccccc1` [Compound 13, 2[(5-Nitro-2-pyridinyl)sulfonyl]ethyl benzoate], the IC50 in assay [1] and in assay [2] was under 10 µM throughout.
Consider `O=C(OCCS(=O)(=O)c1ccc([N+](=O)[O-])cn1)c1ccc(F)cc1` [Compound 16, 2-[(5-Nitro-2-pyridinyl)sulfonyl]ethyl 4-fluorobenzoate], for which the IC50 in assay [1] and in assay [2] was under 10 µM each time.
With `O=C(OCC[S+]([O-])c1ccc([N+](=O)[O-])cn1)c1cccc(Cl)c1` (centres unmarked) [Compound 50, 2-[(5-nitro-2-pyridinyl)sulfinyl]ethyl-3-chlorobenzoate], the IC50 in assay [1] and in assay [2] was under 10 µM in each case.
For `O=C(OCCS(=O)(=O)c1ccc([N+](=O)[O-])cn1)c1cccc(Cl)c1` [Compound 6, 2-[(5-Nitro-2-pyridinyl)sulfonyl]ethyl 3-chlorobenzoate], the IC50 in assay [1] and in assay [2] was under 10 µM each time.
Regarding `O=C(OCCS(=O)(=O)c1ccc([N+](=O)[O-])cn1)c1ccccc1F` [Compound 14, 2-[(5-Nitro-2-pyridinyl)sulfonyl]ethyl 2-fluorobenzoate], the IC50 in assay [1] and in assay [2] was under 10 µM throughout.
For the molecule `O=C(Nc1ccccc1)Nc1ccc(S(=O)(=O)CCOC(=O)c2cccc(Cl)c2)nc1` [Compound 55, 2-[(5-{Phenylureido}-2-pyridinyl)sulfonyl]ethyl-3-chlorobenzoate], the IC50 in assay [1] and in assay [2] was over 10 µM throughout.
As to `O=C(OCCSc1ccc([N+](=O)[O-])cn1)c1cccc(Cl)c1` [Compound 5, 2-[(5-Nitro-2-pyridinyl)thio]ethyl-3-chlorobenzoate], the IC50 in assay [1] and in assay [2] was over 10 µM throughout.
`O=C(OCCS(=O)(=O)c1ccc([N+](=O)[O-])cn1)c1ccc(Cl)cc1` [Compound 9, 2-[(5-Nitro-2-pyridinyl)sulfonyl]ethyl 4-chlorobenzoate]: the IC50 in assay [1] and in assay [2] was under 10 µM throughout.
As for `O=C(OCCS(=O)(=O)c1ccc(C(F)(F)F)cn1)c1cccc(Cl)c1` [Compound 21, 2-[(5-Trifluoromethyl-2-pyridinyl)-2-sulfonyl]ethyl 3-chlorobenzoate], the IC50 in assay [1] and in assay [2] was under 10 µM in each case.
For `O=C(OCCS(=O)(=O)c1ccc([N+](=O)[O-])cn1)c1ccccc1C(F)(F)F` [Compound 12, 2-[(5-Nitro-2-pyridinyl)sulfonyl]ethyl-2-trifluoromethylbenzoate], the IC50 in assay [1] and in assay [2] was under 10 µM in each case.
Consider `O=C(OCCS(=O)(=O)c1ccc(N2C(=O)CCC2=O)cn1)c1cccc(Cl)c1` [Compound 67, [(5-{2,5-Dioxotetrahydro-1H-pyrrol-1-yl}-2-pyridinyl)sulfonyl]ethyl 3-chlorobenzoate], for which the IC50 in assay [1] and in assay [2] was over 10 µM each time.
For the molecule `O=C(OCCS(=O)(=O)c1ccc(N2C(=O)c3ccccc3C2=O)cn1)c1cccc(Cl)c1` [Compound 66, [(5-{1,3-Dihydro-1,3-dioxo-2H-isoindol-2-yl}-2-pyridinyl)sulfonyl]ethyl 3-chlorobenzoate], the IC50 in assay [1] and in assay [2] was under 10 µM each time.
As for `CC(C)(C)OC(=O)NCCS(=O)(=O)c1ccc([N+](=O)[O-])cn1` [Compound 41, 2-[(2-{N-tert-Butoxycarbonylamino}ethyl)sulfonyl]-5-nitropyridine], the IC50 in assay [1] and in assay [2] was under 10 µM each time.
Turning to `O=C(NCCS(=O)(=O)c1ccc([N+](=O)[O-])cn1)c1cccc(Cl)c1` [Compound 42, 3-Chloro-N-[2-({5-nitro-2-pyridinyl}sulfonyl)ethyl]benzamide], the IC50 in assay [1] and in assay [2] was under 10 µM each time.
With `CCC(=O)OCCS(=O)(=O)c1ccc([N+](=O)[O-])cn1` [Compound 18, 2-[(5-Nitro-2-pyridinyl)sulfonyl]ethyl propionate], the IC50 in assay [1] and in assay [2] was under 10 µM throughout.
`CC(=O)OCCS(=O)(=O)c1ccc([N+](=O)[O-])cn1` [Compound 17, 2-[(5-Nitro-2-pyridinyl)sulfonyl]ethyl acetate]: the IC50 in assay [1] and in assay [2] was under 10 µM in each case.
Take `O=C(OCCS(=O)(=O)c1ccc([N+](=O)[O-])cn1)c1cccc(F)c1` [Compound 15, 2-[(5-Nitro-2-pyridinyl)sulfonyl]ethyl 3-fluorobenzoate]: the IC50 in assay [1] and in assay [2] was under 10 µM each time.
`O=C(Nc1ccc(OC(F)(F)F)cc1)Nc1ccc(S(=O)(=O)CCOC(=O)c2cccc(Cl)c2)nc1` [Compound 57, 2-[(5-{4-Trifluoromethoxyphenylureido}-2-pyridinyl)sulfonyl]ethyl-3-chlorobenzoate]: the IC50 in assay [1] and in assay [2] was under 10 µM each time.
With `CCNC(=O)Nc1ccc(S(=O)(=O)CCOC(=O)c2cccc(Cl)c2)nc1` [Compound 56, 2-[(5-{Ethylureido}-2-pyridinyl)sulfonyl]ethyl-3-chlorobenzoate], the IC50 in assay [1] and in assay [2] was over 10 µM in each case.
As for `CC(=O)NCCS(=O)(=O)c1ccc([N+](=O)[O-])cn1` [Compound 40], the IC50 in assay [1] and in assay [2] was under 10 µM in each case.
